# In patent US11814367B2, “Inhibitors of glycogen synthase 1 (GYS1) and methods of use thereof” (Maze Therapeutics, Inc., priority 2021, dated 2023):
# Legend:
# [1] = target: hGYS1 enzyme (recombinant hGYS1/GN1 protein) (Homo sapiens (Human), UniProt P13807); assay: GYS1 coupled enzyme assay (PK/LDH); type: biochemical; details: hGYS1/GN1 50 nM, UDP-Glucose 0.8 mM, G6P 1 mM; geometric mean of at least 2 runs
# [2] = test system: hGYS1 enzyme / glycogen synthesis in HeLa cells; assay: GYS1 cell based assay (glycogen synthesis, Glucose-glo); parameters: species or system human; details: Homo sapiens, HeLa, 24 h, 24 h incubation, 20 mM glucose, geometric mean of at least 2 runs
# In short: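 HeLa cells starved 24 h in medium containing only 1× Glutamax were plated onto compound in medium with 20 mM glucose (1% DMSO final) for 24 h, 37 °C, 5% CO2. Acid lysates were Tris-quenched, glucoamylase-digested (pH 5.3, 1 h, 37 °C) and read by Glucose-glo luminescence. IC50 came from Hill fits, as geometric mean of ≥2 runs.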
# [3] = target: hGYS2 enzyme (recombinant hGYS2/GN1 protein) (Homo sapiens (Human), UniProt P54840); assay: GYS2 coupled enzyme assay (PK/LDH); type: biochemical; details: geometric mean of at least 2 assay runs on separate days, read-out: Avg_IC50
# In short: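 Continuous PK/LDH-coupled readout of NADH loss at 340 nm over 10 min, with 200 nM hGYS2/GN1 and 2 mM each of UDP-glucose, glucose-6-phosphate and PEP, in 50 mM Tris pH 7.5 with 0.2% glycogen and 2.5% DMSO. Slopes were normalized to controls and IC50s fit to a Hill curve from duplicates.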
# hGYS1 enzyme (recombinant hGYS1/GN1 protein), sequence (P13807 whole entry): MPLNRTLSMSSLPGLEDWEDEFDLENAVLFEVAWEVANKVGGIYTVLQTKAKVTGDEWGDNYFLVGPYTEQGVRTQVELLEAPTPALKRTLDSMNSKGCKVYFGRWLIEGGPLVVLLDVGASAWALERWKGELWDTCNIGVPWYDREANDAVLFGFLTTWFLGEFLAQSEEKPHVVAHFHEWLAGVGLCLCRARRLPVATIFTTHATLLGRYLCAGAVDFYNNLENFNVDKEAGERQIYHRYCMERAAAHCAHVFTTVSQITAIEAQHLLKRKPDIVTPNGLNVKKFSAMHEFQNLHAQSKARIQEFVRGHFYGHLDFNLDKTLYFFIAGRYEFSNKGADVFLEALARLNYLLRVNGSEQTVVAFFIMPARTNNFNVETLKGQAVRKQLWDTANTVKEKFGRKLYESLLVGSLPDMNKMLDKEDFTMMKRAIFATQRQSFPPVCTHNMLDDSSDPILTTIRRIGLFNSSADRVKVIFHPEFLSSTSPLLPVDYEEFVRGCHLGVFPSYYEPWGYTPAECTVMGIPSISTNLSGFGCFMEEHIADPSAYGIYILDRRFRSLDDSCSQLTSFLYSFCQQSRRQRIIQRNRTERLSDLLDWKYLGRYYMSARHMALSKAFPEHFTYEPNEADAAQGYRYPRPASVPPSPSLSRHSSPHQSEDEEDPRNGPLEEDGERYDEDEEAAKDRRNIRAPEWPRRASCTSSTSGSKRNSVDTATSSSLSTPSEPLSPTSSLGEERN
# hGYS1 enzyme (recombinant hGYS1/GN1 protein), sequence (P46976 whole entry partner): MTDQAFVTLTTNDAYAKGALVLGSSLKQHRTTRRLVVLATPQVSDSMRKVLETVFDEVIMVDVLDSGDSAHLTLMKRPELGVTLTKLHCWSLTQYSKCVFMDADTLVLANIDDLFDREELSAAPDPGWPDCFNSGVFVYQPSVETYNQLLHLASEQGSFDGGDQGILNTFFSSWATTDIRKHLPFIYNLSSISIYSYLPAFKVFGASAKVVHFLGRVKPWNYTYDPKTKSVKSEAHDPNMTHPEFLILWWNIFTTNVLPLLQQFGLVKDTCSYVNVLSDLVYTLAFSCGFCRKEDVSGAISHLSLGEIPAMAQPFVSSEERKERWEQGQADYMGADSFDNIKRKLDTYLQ
# hGYS2 enzyme (recombinant hGYS2/GN1 protein), sequence (P54840 whole entry): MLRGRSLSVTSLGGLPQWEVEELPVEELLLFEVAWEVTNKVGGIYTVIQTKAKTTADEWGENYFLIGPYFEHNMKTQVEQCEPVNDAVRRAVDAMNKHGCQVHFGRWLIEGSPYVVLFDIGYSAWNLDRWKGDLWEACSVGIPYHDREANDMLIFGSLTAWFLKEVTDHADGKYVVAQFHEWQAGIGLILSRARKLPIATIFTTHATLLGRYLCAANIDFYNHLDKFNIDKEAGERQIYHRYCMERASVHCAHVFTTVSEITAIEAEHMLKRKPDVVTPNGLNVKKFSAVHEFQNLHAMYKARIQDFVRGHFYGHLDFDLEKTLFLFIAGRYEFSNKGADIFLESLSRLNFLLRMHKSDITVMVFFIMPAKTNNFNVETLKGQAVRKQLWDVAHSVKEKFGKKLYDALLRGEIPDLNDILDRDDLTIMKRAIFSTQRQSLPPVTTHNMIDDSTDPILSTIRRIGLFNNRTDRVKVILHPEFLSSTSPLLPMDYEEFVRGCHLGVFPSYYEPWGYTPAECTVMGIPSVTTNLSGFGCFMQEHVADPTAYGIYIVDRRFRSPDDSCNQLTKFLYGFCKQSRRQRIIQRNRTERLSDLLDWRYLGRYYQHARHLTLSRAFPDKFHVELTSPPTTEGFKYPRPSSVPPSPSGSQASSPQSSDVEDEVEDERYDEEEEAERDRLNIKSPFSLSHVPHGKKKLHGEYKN
# hGYS2 enzyme (recombinant hGYS2/GN1 protein), sequence (P46976 whole entry partner): as the sequence (P46976 whole entry partner) above
IC50 [1] [nM],IC50 [2] [nM],IC50 [3] [nM],Compound
63,1010,> 100000,"Cc1coc(CC(=O)N2C[C@H](F)C[C@H]2C(=O)N[C@@H](c2ccccc2)c2ccc(C3CC3)c(F)n2)n1 [Compound 314, (2S,4R)-N-[(S)-(5-cyclopropyl-6-fluoropyridin-2-yl)(phenyl)methyl]-4-fluoro-1-[2-(4-methyl-1,3-oxazol-2-yl)acetyl]pyrrolidine-2-carboxamide]"
23,730,> 100000,"O=C(N[C@@H](c1ccccc1)c1ccc(C2CC2)c(F)n1)[C@@H]1C[C@@H](F)CN1C(=O)CNC(=O)N1CC(F)(F)C1 [Compound 315, (2S,4R)-N-[(S)-(5-cyclopropyl-6-fluoropyridin-2-yl)(phenyl)methyl]-1-{2-[(3,3-difluoroazetidine-1-carbonyl)amino]acetyl}-4-fluoropyrrolidine-2-carboxamide]"
37,930,> 100000,"Cc1nn(CC(=O)N2C[C@H](F)C[C@H]2C(=O)N[C@@H](c2ccccc2)c2ccc(C3CC3)c(F)n2)c(=O)o1 [Compound 316, (2S,4R)-N-[(S)-(5-cyclopropyl-6-fluoropyridin-2-yl)(phenyl)methyl]-4-fluoro-1-[2-(5-methyl-2-oxo-2,3-dihydro-1,3,4-oxadiazol-3-yl)acetyl]pyrrolidine-2-carboxamide]"
17,390,> 100000,"O=C(N[C@@H](c1ccccc1)c1ccc(C2CC2)c(F)n1)[C@@H]1C[C@@H](F)CN1C(=O)Cn1ncc(N2CCC2)n1 [Compound 317, (2S,4R)-1-{2-[4-(azetidin-1-yl)-2H-1,2,3-triazol-2-yl]acetyl}-N-[(S)-(5-cyclopropyl-6-fluoropyridin-2-yl)(phenyl)methyl]-4-fluoropyrrolidine-2-carboxamide]"
20,580,> 100000,"O=C(N[C@@H](c1ccccc1)c1ccc(C2CC2)c(F)n1)[C@@H]1C[C@@H](F)CN1C(=O)Cn1ncc(N2CC(F)(F)C2)n1 [Compound 318, (2S,4R)-N-[(S)-(5-cyclopropyl-6-fluoropyridin-2-yl)(phenyl)methyl]-1-{2-[4-(3,3-difluoroazetidin-1-yl)-2H-1,2,3-triazol-2-yl]acetyl}-4-fluoropyrrolidine-2-carboxamide]"
7,240,> 100000,"CCN(CC)c1cnn(CC(=O)N2C[C@H](F)C[C@H]2C(=O)N[C@@H](c2ccccc2)c2ccc(C3CC3)c(F)n2)n1 [Compound 319, (2S,4R)-N-[(S)-(5-cyclopropyl-6-fluoropyridin-2-yl)(phenyl)methyl]-1-{2-[4-(diethylamino)-2H-1,2,3-triazol-2-yl]acetyl}-4-fluoropyrrolidine-2-carboxamide]"
197,1590,> 100000,"O=C(N[C@@H](c1ccccc1)c1ccc(C2CC2)c(F)n1)[C@@H]1[C@H]2C[C@H]2CN1C(=O)Cc1cnn[nH]1 [Compound 320, (1S,2S,5R)-N-[(S)-(5-cyclopropyl-6-fluoropyridin-2-yl)(phenyl)methyl]-3-[2-(1H-1,2,3-triazol-5-yl)acetyl]-3-azabicyclo[3.1.0]hexane-2-carboxamide]"
124,1240,> 100000,"C[C@H]1CC[C@@H](C(=O)N[C@@H](c2ccccc2)c2ccc(C3CC3)c(F)n2)N1C(=O)Cc1cnn[nH]1 [Compound 321, (2S,5S)-N-[(S)-(5-cyclopropyl-6-fluoropyridin-2-yl)(phenyl)methyl]-5-methyl-1-[2-(1H-1,2,3-triazol-5-yl)acetyl]pyrrolidine-2-carboxamide]"
13,290,> 100000,"CC(C)c1ccc([C@@H](NC(=O)[C@@H]2C[C@@H](F)CN2C(=O)Cn2nncc2C(F)(F)F)c2ccccc2)cc1F [Compound 322, (2S,4R)-4-fluoro-N—((S)-(3-fluoro-4-isopropylphenyl)(phenyl)methyl)-1-(2-(5-(trifluoromethyl)-1H-1,2,3-triazol-1-yl)acetyl)pyrrolidine-2-carboxamide]"
74,900,> 100000,"CC(C)c1ccc([C@@H](NC(=O)[C@@H]2CC[C@H](C)N2C(=O)Cc2cnn[nH]2)c2ccccc2)cc1F [Compound 323, (2S,5S)-N-[(S)-[3-fluoro-4-(propan-2-yl)phenyl](phenyl)methyl]-5-methyl-1-[2-(1H-1,2,3-triazol-5-yl)acetyl]pyrrolidine-2-carboxamide]"
20,340,> 100000,"CC(C)c1ccc([C@@H](NC(=O)[C@@H]2C[C@@H](F)CN2C(=O)Cc2cnn[nH]2)c2ccccc2)cc1F [Compound 326, (2S,4R)-4-fluoro-N-[(S)-[3-fluoro-4-(propan-2-yl)phenyl](phenyl)methyl]-1-[2-(1H-1,2,3-triazol-5-yl)acetyl]pyrrolidine-2-carboxamide]"
21,560,> 100000,"CC(C)c1ccc([C@@H](NC(=O)[C@@H]2C[C@@H](F)CN2C(=O)Cn2cnnn2)c2ccccc2)cc1F [Compound 330, (2S,4R)-4-fluoro-N-[(S)-[3-fluoro-4-(propan-2-yl)phenyl](phenyl)methyl]-1-[2-(1H-1,2,3,4-tetrazol-1-yl)acetyl]pyrrolidine-2-carboxamide]"
25,270,> 100000,"Cc1nnc(CC(=O)N2C[C@H](F)C[C@H]2C(=O)N[C@@H](c2ccccc2)c2ccc(C(C)C)c(F)c2)o1 [Compound 332, (2S,4R)-4-fluoro-N-[(S)-[3-fluoro-4-(propan-2-yl)phenyl](phenyl)methyl]-1-[2-(5-methyl-1,3,4-oxadiazol-2-yl)acetyl]pyrrolidine-2-carboxamide]"
37,450,> 100000,"CC(C)c1ccc([C@@H](NC(=O)[C@@H]2C[C@@H](F)CN2C(=O)Cc2cnnn2C)c2ccccc2)cc1F [Compound 335, (2S,4R)-4-fluoro-N-[(S)-[3-fluoro-4-(propan-2-yl)phenyl](phenyl)methyl]-1-[2-(1-methyl-1H-1,2,3-triazol-5-yl)acetyl]pyrrolidine-2-carboxamide]"
15,280,> 100000,CC(C)c1ccc([C@@H](NC(=O)[C@@H]2C[C@@H](F)CN2C(=O)Cc2cn(C)nn2)c2ccccc2)cc1F [Compound 336]
34,390,> 100000,"CC(C)c1ccc([C@@H](NC(=O)[C@@H]2C[C@@H](F)CN2C(=O)Cc2ccno2)c2ccccc2)cc1F [Compound 338, (2S,4R)-4-fluoro-N-[(S)-[3-fluoro-4-(propan-2-yl)phenyl](phenyl)methyl]-1-[2-(1,2-oxazol-5-yl)acetyl]pyrrolidine-2-carboxamide]"
18,310,> 100000,"CC(C)c1ccc([C@@H](NC(=O)[C@@H]2C[C@@H](F)CN2C(=O)CN2CC(=O)N(C)CC2=O)c2ccccc2)cc1F [Compound 339, (2S,4R)-4-fluoro-N-[(S)-[3-fluoro-4-(propan-2-yl)phenyl](phenyl)methyl]-1-[2-(4-methyl-2,5-dioxopiperazin-1-yl)acetyl]pyrrolidine-2-carboxamide]"
